Entries after “also recorded” stand apart in the source; their conditions may differ. Like-named read-outs stand apart in the source and are kept apart here.

Broadly, the IC50 is the midpoint of a concentration-inhibition curve.

The target of the test is 3CL Protease (M^pro) (SARS-CoV-2) (Severe acute respiratory syndrome coronavirus 2, UniProt P0DTD1). The experiment in a line: biochemical. It is filed as biochemical. Particulars: for inhibitory activity against M^pro: concentration not given; for inhibitory effects on the activity of Mpro: eight concentrations (0-200 μM) tested, Figure S2; for inhibition of the M^pro activity: range of concentrations from 0 to 500 μM tested; for inhibition at 100 µM: read-out: M^pro activity inhibited compared with the negative control.

In the case of `Oc1cc(O)c2c(c1)O[C@H](c1ccc(O)c(O)c1)[C@@H](O)C2` [CA, (+)-catechin], the “inhibitory activity against M^pro” value is on record as “did not have inhibitory activities; also recorded: No inhibitory activity was detected”, the “inhibitory effects on the activity of Mpro” value (from here on “inhibitory effects”) is on record as “No inhibitory effects” and the “inhibition of the M^pro activity” value is “did not detect”.
In the case of `O=C(O[C@@H]1Cc2c(O)cc(O)cc2O[C@H]1c1cc(O)c(O)c(O)c1)c1cc(O)c(O)c(O)c1` [GCG, (–)-gallocatechin-3-O-gallate], the “inhibitory activity against M^pro” value is recorded as “inhibited” and the inhibition at 100 µM was found to be 50%.
Regarding `O=C(OC1Cc2c(O)cc(O)cc2OC1c1cc(O)c(O)c(O)c1)c1cc(O)c(O)c(O)c1` (single isomer, unassigned; (-)) [EGCG, (–)-epigallocatechin-3-O-gallate], the “inhibitory activity against M^pro” value is given as “inhibited” and the inhibition at 100 µM stood at 44.4%.
Turning to `Oc1cc(O)c2c(c1)O[C@H](c1ccc(O)c(O)c1)[C@H](O)[C@H]2c1c(O)cc(O)c2c1O[C@H](c1ccc(O)c(O)c1)[C@@H](O)C2` [procyanidin B1], the “inhibitory activity against M^pro” value is recorded as “inhibited”.
On to `Oc1cc(O)c2c(c1)O[C@H](c1ccc(O)c(O)c1)[C@H](O)[C@H]2c1c(O)cc(O)c2c1O[C@H](c1ccc(O)c(O)c1)[C@H](O)C2` [PB2, procyanidin B2], for which the IC50 was 75.3 ± 1.29 µM and the “inhibitory activity against M^pro” value is listed as “inhibited”. Also, the inhibition at 100 µM (100 μM compound) was 81.5%.
For the molecule `Oc1cc(O)c2c(c1)O[C@@H](c1cc(O)c(O)c(O)c1)[C@H](O)C2` [GC, (+)-gallocatechin], the “inhibitory activity against M^pro” value is “did not have inhibitory activities; also recorded: No inhibitory activity was detected”, the “inhibitory effects” value is listed as “No inhibitory effects” and the “inhibition of the M^pro activity” value was “did not detect”.
For `Oc1cc(O)c2c(c1)O[C@H](c1cc(O)c(O)c(O)c1)[C@H](O)C2` [EGC, (–)-epigallocatechin] the same measures were “did not have inhibitory activities; also recorded: No inhibitory activity was detected”, “No inhibitory effects” and “did not detect”.
On the same counts, the results for `Oc1cc(O)c2c(c1)O[C@@]1(c3ccc(O)c(O)c3)Oc3cc(O)c4c(c3[C@@H]2[C@H]1O)O[C@H](c1ccc(O)c(O)c1)[C@H](O)C4` [PA2, procyanidin A2] are “did not have inhibitory activities”, “No inhibitory effects” and “did not detect”.
For `Oc1cc(O)c2c(c1)O[C@H](c1ccc(O)c(O)c1)[C@H](O)C2` [EC, (–)-epicatechin], the “inhibitory activity against M^pro” value is given as “did not have inhibitory activities; also recorded: No inhibitory activity was detected”, the “inhibitory effects” value is on record as “No inhibitory effects” and the “inhibition of the M^pro activity” value is “did not detect”.
On to `O=C(O[C@@H]1Cc2c(O)cc(O)cc2O[C@H]1c1ccc(O)c(O)c1)c1cc(O)c(O)c(O)c1` [CAG, (+)-catechin-3-O-gallate], for which the “inhibitory activity against M^pro” value is given as “inhibited” and the inhibition at 100 µM was 40%.
For `O=C(O[C@@H]1Cc2c(O)cc(O)cc2O[C@@H]1c1ccc(O)c(O)c1)c1cc(O)c(O)c(O)c1` [ECG, (–)-epicatechin-3-O-gallate], the IC50 is 5.21 ± 0.5 µM, the “inhibitory activity against M^pro” value is listed as “inhibited” and the inhibition at 100 µM came to 40%.

Source of the values: PMC7733993, “Docking Characterization and in vitro Inhibitory Activity of Flavan-3-ols and Dimeric Proanthocyanidins Against the Main Protease Activity of SARS-Cov-2” (Frontiers in Plant Science, 2020).
